Experimental data: US5445956A, “Recombinant soluble epoxide hydrolase” (The Regents of the University of California, priority 1993, dated 1995)

Legend:
[1] = test system: sEH of various species (mouse, rabbit, primate); details: Dietze et al. 1991, 1993, read-out: I50; cited from earlier work
human sEH [2] = target: T1, human sEH (Homo sapiens, UniProt P34913); assay: Human soluble EH activity in lysates of Sf21 cells infected with recombinant AcNPV, TSO and CSO as substrates; type: biochemical; details: for inhibition at 62.5 µM: preincubation of lysates from human sEH expressing cells with inhibitor (62.5 μM, Table II), read-out: inhibition of the hydrolysis of TSO and CSO
T1 construct: made in house; host or cells: Spodoptera frugiperda Sf21 cells infected with recombinant AcNPV (AchsEH1)
T1 sequence (P34913 1-555): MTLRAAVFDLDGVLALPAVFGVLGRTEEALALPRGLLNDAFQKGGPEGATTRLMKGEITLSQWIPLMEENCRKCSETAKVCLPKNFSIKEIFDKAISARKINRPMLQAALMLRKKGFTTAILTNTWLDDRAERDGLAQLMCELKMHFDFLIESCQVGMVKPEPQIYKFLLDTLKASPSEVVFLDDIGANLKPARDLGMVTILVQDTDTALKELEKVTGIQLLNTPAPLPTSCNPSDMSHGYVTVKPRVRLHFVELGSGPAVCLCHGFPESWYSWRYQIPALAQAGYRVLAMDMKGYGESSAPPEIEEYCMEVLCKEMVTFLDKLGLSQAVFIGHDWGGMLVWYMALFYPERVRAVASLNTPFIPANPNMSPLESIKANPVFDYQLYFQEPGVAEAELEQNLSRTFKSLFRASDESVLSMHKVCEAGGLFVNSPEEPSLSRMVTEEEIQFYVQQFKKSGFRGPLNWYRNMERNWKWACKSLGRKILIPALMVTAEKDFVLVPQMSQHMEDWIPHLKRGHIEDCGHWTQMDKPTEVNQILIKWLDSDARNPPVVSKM
Excerpt: To obtain recombinant baculovirus, Spodoptera frugiperda 21 (Sf21) insect cells are cotransfected with plasmid pAcUW21-hsEH plus linearized DNA (AcRP6-SC) of Autographa californica nuclear polyhedrosis virus (AcNPV). […] The resulting virus plaque is purified as described by O'Reilly, D. R., et al., in Baculovirus Expresssion Vectors. A Labortory Manual, p. […] Cultures of Sf21 cells are then infected with recombinant AcNPV containing the human sEH sequence or with control AcNPV. Uninfected cultures are also maintained. Cultures are maintained 4 to 5 days post infection before harvesting proteins. For extraction of proteins, cells are washed (three times in 90 mM NaHPO4 pH7.4) then lysed (in 90 mM NaHPO4 pH7.4, 1 mM EDTA, 1 mM phenylmethylsulfonyl fluoride) by 3 cycles of freeze thawing (dry ice ethanol and 37° C. H2 O baths).
A., and B. D. Hammock in Arch. […] Biochem. Biophys.

sEH = details: inhibits only very weakly other enzymes that catalyze hydrolysis or conjugation of epoxides; Mullin and Hammock 1982, Prestwich 1985; cited from earlier work
murine sEH = target: T2, murine sEH (Mus musculus, UniProt P34914); assay: Epoxide hydrolase activity (TSO partition assay) in extracts of COS-7 cells transfected with murine sEH expression vector; type: biochemical; details: psEH-pJ3omega transfected COS-7 cells + t-ENPG 1 mM final concentration
T2 construct: A primer pair to amplify the entire coding region is; expressed in transfected cells; host or cells: COS-7
T2 sequence (P34914 1-554): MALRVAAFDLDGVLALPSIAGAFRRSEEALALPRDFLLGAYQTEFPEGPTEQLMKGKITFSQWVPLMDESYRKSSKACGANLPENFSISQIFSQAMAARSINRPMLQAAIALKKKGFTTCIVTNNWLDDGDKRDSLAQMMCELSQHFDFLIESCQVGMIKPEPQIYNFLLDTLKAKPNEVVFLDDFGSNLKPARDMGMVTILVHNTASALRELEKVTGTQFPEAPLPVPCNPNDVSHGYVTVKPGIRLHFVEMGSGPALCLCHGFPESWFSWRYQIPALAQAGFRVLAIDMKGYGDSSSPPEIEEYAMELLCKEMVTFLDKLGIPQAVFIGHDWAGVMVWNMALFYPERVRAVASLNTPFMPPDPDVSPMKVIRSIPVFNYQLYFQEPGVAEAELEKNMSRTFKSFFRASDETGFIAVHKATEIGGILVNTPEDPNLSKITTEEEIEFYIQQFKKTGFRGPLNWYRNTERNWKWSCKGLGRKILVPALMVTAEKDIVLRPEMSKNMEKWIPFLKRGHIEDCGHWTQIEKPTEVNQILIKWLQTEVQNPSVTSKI
Method: (§1) To detect soluble epoxide hydrolase activity or to monitor its relative purity, one uses the partition assay of Wixtrom, R. N., and B. D. Hammock in Biochemical Pharmacoloyt and Toxicology (Zakim, D., and Vessey, D. A., Eds), Vol. 1, pp. 1-93. Wiley, New York ([…]) with [^3 H]-trans-stilbene oxide ([^3 H]TSO) as substrate, incorporated herein by reference. In brief this assay entails: coincubating the enzyme with radiolabled substrate that is much more soluble in organic than aqueous solutions. Next, the enzyme substrate is extracted with organic solvent such that the substrate partitions into the organic phase but the more polar and water-soluble product (a vicinal diol) partitions to the aqueous phase. An aliquot of the aqueous phase is then analyzed for concentration of product by quantification of radioactivity. The substrate [^3 H]TSO is prepare by the method described by Gill, S. S., et al., in Anal. Biochem., 131:273-282 (1993) incorporated herein by reference.
cos-7 cells are grown as a monolayer culture in Dulbecco's modified Eagle's medium (ICN) containing 10% fetal calf serum (ICN) plus penicillin G (100 U/ml) and streptomycin sulfate (100 ug/ml). Cell transfections are mediated by lipofectin (Gibco) according to standard protocol. Approximately 1×10^6 cells are transfected in 100 mm dishes with 5 ug of murine sEH-pJ3omega, 5 ug pJ3omega vector control or a mock transfection control containing lipofectin only (60 ul/plate). All transfections except the mock transfection control contain 2.5 ug of the beta-galactosidase plasmid, pSV-beta-Gal (Promega) can be used as an internal positive control. After 36 hours, cells are washed 5 times with PBS and collected by scraping into 1.5 ml centrifuge tubes. The cells are then pelleted (12 k×g, 4° C., 30 seconds), resuspended in 150 ul of lysis buffer (40 mM tris, pH 8.0, 150 mM NaCl, 0.2 mM PMSF, 1 mM EDTA) and lysed by 3 cycles of freezing and thawing. The cells are again centrifuged and the supernatant used for enzyme assays and protein determination. […]

soluble EH = details: at 8 uM; cited from earlier work
[3] = test system: basal sEH activity of COS-7 cells; assay: Basal epoxide hydrolase activity (TSO) in extracts of vector-control or mock transfected COS-7 cells; type: biochemical, monkey
Method: as §1
cos-7 cells are grown as a monolayer culture in Dulbecco's modified Eagle's medium (ICN) containing 10% fetal calf serum (ICN) plus penicillin G (100 U/ml) and streptomycin sulfate (100 ug/ml). Cell transfections are mediated by lipofectin (Gibco) according to standard protocol. Approximately 1×10^6 cells are transfected in 100 mm dishes with 5 ug of murine sEH-pJ3omega, 5 ug pJ3omega vector control or a mock transfection control containing lipofectin only (60 ul/plate). All transfections except the mock transfection control contain 2.5 ug of the beta-galactosidase plasmid, pSV-beta-Gal (Promega) can be used as an internal positive control. After 36 hours, cells are washed 5 times with PBS and collected by scraping into 1.5 ml centrifuge tubes. The cells are then pelleted (12 k×g, 4° C., 30 seconds), resuspended in 150 ul of lysis buffer (40 mM tris, pH 8.0, 150 mM NaCl, 0.2 mM PMSF, 1 mM EDTA) and lysed by 3 cycles of freezing and thawing. The cells are again centrifuged and the supernatant used for enzyme assays and protein determination. Beta-galactosidase is assayed as described (Sambrook et al., 1989). sEH activity is assayed using TSO as described by the method of Wixtrom, R. N. and B. D. Hammock in Biochemical Pharmacology and Toxicology, (Zakim, D. and Vessey, D. A., ed.) 1:1-93 (1985).
The functional analysis of recombinant murine sEH expressed in COS-7 cells was performed following the methods described above. […] Transfected cells expressed approximately the same level of sEH activity as did mock transfected cells when 1 mM t-ENPG was included in the enzyme assay. […] The differences in specific activity among the experiments in Table I are most likely due to differences in cell density during transfections.
As well as detecting the transiently expressed sEH, the anti-rhesus-sEH antiserum also detected a protein that migrates identically with mouse sEH.

[4] = test system: monkey and murine microsomal EH; details: at 2 mM; cited from earlier work
human sEH [5] = target: T1, human sEH; assay: Heat lability of expressed human sEH; type: biochemical; details: enzyme assay mixture preincubated 15 min at 65° C.
[6] = AchsEH1 infected Sf21 lysate, inhibitor 62.5 μM, ND = no activity detected where 0.65 was distinguishable above background

## O=[N+]([O-])c1ccc([C@H]2O[C@@H]2CO)cc1 [RRNPG, (2R,3R)-3-(4-nitrophenyl) glycidol]
[1]
  IC50: > 690 µM
Human sEH [2]; [6]
  specific activity remaining with inhibitor, substrate CSO: 19.8 (1.26) nmoles TSO or CSO converted to
Human sEH [2]
  inhibition at 62.5 µM: 39%

## O=C(c1ccccc1)C1OC1c1ccc(F)cc1 (centres unmarked) [4FCO, 4-fluorochalcone oxide]
sEH
  selectivity for sEH: very selective inhibitor of sEH
Human sEH [2]
  inhibition at 62.5 µM: 100%

## O=[N+]([O-])c1ccc([C@@H]2O[C@H]2CO)cc1 [SSNPG, (2S,3S)-3-(4-nitrophenyl) glycidol]
[1]
  IC50: 1 to 10 µM
Human sEH [2]; [6]
  specific activity remaining with inhibitor, substrate TSO: 5.73 (0.56) nmoles TSO or CSO converted to
Human sEH [2]
  inhibition at 62.5 µM: 73%

## O=[N+]([O-])c1ccc([C@@H]2O[C@H]2CO)cc1 [t-ENPG, trans2(S),3(S)-epoxy-3-(4-nitrophenyl) glycidol]
Murine sEH; Experiment 1
  Epoxide hydrolase activity (±S.D.) remaining with inhibitor: 76 ± 20 pmol·min/mg
Murine sEH; Experiment 2
  Epoxide hydrolase activity (±S.D.) remaining with inhibitor: 109 ± 4 pmol·min/mg
Murine sEH; Experiment 3
  Epoxide hydrolase activity (±S.D.) remaining with inhibitor: 134 ± 6 pmol·min/mg
Soluble EH
  inhibition of soluble EH: ≥ 50%
[3]; Experiment 1, mock transfected COS-7 cells + t-ENPG 1 mM
  Epoxide hydrolase activity (±S.D.) remaining with inhibitor: 74 ± 6 pmol·min/mg
[3]; Experiment 1, pJ3omega vector control transfected COS-7 cells + t-ENPG 1 mM
  Epoxide hydrolase activity (±S.D.) remaining with inhibitor: 69 ± 6 pmol·min/mg
[3]; Experiment 2, mock transfected COS-7 cells + t-ENPG 1 mM
  Epoxide hydrolase activity (±S.D.) remaining with inhibitor: 106 ± 5 pmol·min/mg
[3]; Experiment 2, pJ3omega vector control transfected COS-7 cells + t-ENPG 1 mM
  Epoxide hydrolase activity (±S.D.) remaining with inhibitor: 97 ± 4 pmol·min/mg
[3]; Experiment 3, mock transfected COS-7 cells + t-ENPG 1 mM
  Epoxide hydrolase activity (±S.D.) remaining with inhibitor: 88 ± 2 pmol·min/mg
[3]; Experiment 3, pJ3omega vector control transfected COS-7 cells + t-ENPG 1 mM
  Epoxide hydrolase activity (±S.D.) remaining with inhibitor: 113 ± 8 pmol·min/mg
[4]
  inhibition of microsomal EH: ≤ 23%

B1: expressed human sEH: recombinant human soluble epoxide hydrolase (Seq ID No.2) expressed in Sf21 cells (protein)
chain: MTLRGAVFDLDGVLALPAVFGVLGRTEEALALPRGLLNDAFQKGGPEGATTRLMKGEITLSQWIPLMEENCRKCSETAKVCLPKNFSIKEIFDKAISARKINRPMLQAALMLRKKGFTTAILTNTWLDDRAERDGLAQLMCELKMHFDFLIESCQVGMVKPEPQIYKFLLDTLKASPSEVVFLDDIGANLKPARDLGMVTILVQDTDTALKELEKVTGIQLLNTPAPLPTSCNPSDMSHGYVTVKPRVRLHFVELGWPAVCLCHGFPESWYSWRYQIPALAQAGYRVLAMDMKGYGESSAPPEIEEYCMEVLCKEMVTFLDKLGLSQAVFIGHDWGGMLVWYMALFYPERVRAVASLNTPFIPANPNMSPLESIKANPVFDYQLYFQEPGVAEAELEQNLSRTFKSLFRASDESVLSMHKVCEAGGLFVNSPEEPSLSRMVTEEEIQFYVQQFKKSGFRGPLNWYRNMERNWKWACKSLGRKILIPALMVTAEKDFVLVPQMSQHMEDWIPHLKRGHIEDCGHWTQMDKPTEVNQILIKWLDSDARNPPVVSKM
Human sEH [5]
  inhibition of activity by heat (heat lability): 100%
